Data reported in patent publication US20230174526A1, “BENZOTHIAZOLYL BIARYL COMPOUND, AND PREPARATION METHOD AND USE” (SHANGHAI RINGENE BIOPHARMA CO., LTD., priority 2020, published 2023).

Tests used:
[1] = Metabolic stability assay, rat liver microsomes; assay type: in vitro ADME; details: rat liver microsomes 0.5 mg/mL, 1 µM compound, read-out: Liver microsomal stability (T½ /min) Rat
Method: Metabolic stability assay: A warm incubation for metabolic stability was performed with a system of 150 µL of liver microsomes (final concentration 0.5 mg/mL) containing NADPH (final concentration 1 mM), 1 µM of the test compound and positive control midazolam or negative control atenolol, and the reaction was terminated with acetonitrile containing tinidazole at 0 min, 5 min, 10 min and 30 min, respectively. The reaction was vortexed for 10 min and centrifuged at 15000 rmp for 10 min, and 50 µL of supernatant was taken into the 96-well plate for sampling. The metabolic stability of the compound was calculated by measuring the relative reduction of the drugs.

CYP2C19 = target: T1, CYP2C19 (Homo sapiens, UniProt P33261); test: Direct inhibition test (DI test), CYP2C19; assay type: in vitro ADME; details: human liver microsomes
T1 construct: a system of 100 µL of human liver microsomes (final concentration 0.2 mg/mL); from tissue; host or cells: human liver microsomes
T1 sequence (P33261 whole entry): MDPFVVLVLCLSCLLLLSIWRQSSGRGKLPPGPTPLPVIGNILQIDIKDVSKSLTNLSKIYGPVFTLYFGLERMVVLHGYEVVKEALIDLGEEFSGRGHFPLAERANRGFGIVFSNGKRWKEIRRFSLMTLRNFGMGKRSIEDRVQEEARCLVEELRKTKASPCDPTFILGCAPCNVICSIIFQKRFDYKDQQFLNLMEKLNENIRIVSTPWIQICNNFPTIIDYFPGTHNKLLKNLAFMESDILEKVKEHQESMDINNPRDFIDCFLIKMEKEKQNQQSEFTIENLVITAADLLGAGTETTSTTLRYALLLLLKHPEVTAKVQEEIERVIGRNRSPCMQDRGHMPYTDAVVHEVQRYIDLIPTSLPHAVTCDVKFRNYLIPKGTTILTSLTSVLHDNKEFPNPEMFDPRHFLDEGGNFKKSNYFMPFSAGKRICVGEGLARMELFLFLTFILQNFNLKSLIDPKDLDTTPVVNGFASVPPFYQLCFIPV
Method: (§1) Direct inhibition test (DI test): direct inhibition warm incubation was performed with a system of 100 µL of human liver microsomes (final concentration 0.2 mg/mL) containing NADPH (final concentration 1 mM), 10 µM compound, positive inhibitor cocktail (ketoconazole 10 µM, quinidine 10 µM, sulfobenzyrazole 100 µM, α-naphthoflavone 10 µM, tranylcypromine 1000 µM), a negative control (BPS with 0.1% DMSO) and a mixed probe substrate (midazolam 10 µM, testosterone 100 µM, dextromethorphan 10 µM, diclofenac 20 µM, phenacetin100 µM, mephenytoin100 µM), and the reaction was terminated after a warm incubation for 20 min.The relative enzyme activity was calculated by measuring the relative amount of metabolites produced.

CYP2C8 = target: T2, CYP2C8 (Homo sapiens, UniProt P10632); test: Direct inhibition test (DI test), CYP2C8; assay type: in vitro ADME; details: human liver microsomes
T2 sequence (P10632 1-490): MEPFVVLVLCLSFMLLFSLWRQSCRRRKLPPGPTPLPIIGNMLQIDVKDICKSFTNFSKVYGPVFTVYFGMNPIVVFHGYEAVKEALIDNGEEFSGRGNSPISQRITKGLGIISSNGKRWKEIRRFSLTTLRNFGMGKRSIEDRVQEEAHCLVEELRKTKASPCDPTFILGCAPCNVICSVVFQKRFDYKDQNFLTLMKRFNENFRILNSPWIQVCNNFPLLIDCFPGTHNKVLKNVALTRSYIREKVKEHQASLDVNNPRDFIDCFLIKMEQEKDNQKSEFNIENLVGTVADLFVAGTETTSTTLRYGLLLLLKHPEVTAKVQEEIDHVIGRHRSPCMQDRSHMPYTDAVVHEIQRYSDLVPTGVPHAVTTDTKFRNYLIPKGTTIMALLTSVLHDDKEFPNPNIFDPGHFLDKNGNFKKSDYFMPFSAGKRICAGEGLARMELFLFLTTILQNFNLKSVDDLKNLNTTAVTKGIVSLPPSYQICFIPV

CYP1A2 = target: T3, CYP1A2 (Homo sapiens, UniProt P05177); test: Direct inhibition test (DI test), CYP1A2; assay type: in vitro ADME; details: human liver microsomes
T3 construct: a system of 100 µL of human liver microsomes (final concentration 0.2 mg/mL); from tissue; host or cells: human liver microsomes
T3 sequence (P05177 1-516): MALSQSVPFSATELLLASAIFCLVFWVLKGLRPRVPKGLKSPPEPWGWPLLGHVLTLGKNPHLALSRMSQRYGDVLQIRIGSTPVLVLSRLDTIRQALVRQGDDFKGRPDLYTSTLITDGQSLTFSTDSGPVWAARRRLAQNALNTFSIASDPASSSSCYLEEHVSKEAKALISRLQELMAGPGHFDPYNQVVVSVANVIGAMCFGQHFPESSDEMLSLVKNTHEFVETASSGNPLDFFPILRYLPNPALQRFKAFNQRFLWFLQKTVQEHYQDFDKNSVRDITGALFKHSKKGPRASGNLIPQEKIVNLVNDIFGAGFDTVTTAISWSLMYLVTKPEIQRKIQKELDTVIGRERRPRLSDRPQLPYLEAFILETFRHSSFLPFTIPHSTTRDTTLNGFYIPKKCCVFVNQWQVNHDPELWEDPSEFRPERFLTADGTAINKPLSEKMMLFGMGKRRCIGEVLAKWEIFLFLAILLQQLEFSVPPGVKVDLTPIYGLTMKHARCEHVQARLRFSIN
Method: as §1

[2] = test system: phosphorylated ERK levels of NCI-H358; test: ERK phosphorylation (western blot), H358; assay type: cell-based; details: Homo sapiens, 3 h
Method: Test method 3 (ERK phosphorylation): Miapaca-2 or H358 cells were inoculated at certain concentrations in 96-well plates and incubated overnight at 37° C., 5% CO2 in a cell culture incubator, and serial dilutions of the test compound (5 concentrations, 3-fold dilution) were added to the plates the next day for 24 h (Miapaca-2) or 3 h (H358), then lysis solution containing protease and phosphatase inhibitor were added to lyse the cells to extract proteins and western blot method was used to detect the level of p-ERK.

| Structure (SMILES) | half-life at 1 µM [1] [min] | IC50 (CYP2C19) [µM] | IC50 at 20 min (CYP2C8) [µM] | IC50 (CYP1A2) [µM] | IC50 [2] [µM] |
| --- | --- | --- | --- | --- | --- |
| C=CC(=O)N1C[C@@H]2C(=O)N(C)c3cnc4c(F)c(-c5ccc(F)c6sc(N)nc56)c(Cl)cc4c3N2C[C@H]1C (single isomer, unassigned) [Example 17-1] | > 30 | > 10 | > 10 | > 10 | – |
| C=CC(=O)N1CCN(c2c(C#N)c(OC[C@@H]3CCCN3C)nc3c(F)c(-c4ccc(F)c5sc(N)nc45)c(Cl)cc23)CC1 [Example 3, 4-(4-Piperazinylacryloylpiperazin-1-yl)-7-(2-Amino-7-Fluorobenzo[d]Thiazol-4-yl)-6-Chloro-8-Fluoro-2-(((S)-1-Methylpyrrolidin-2-Yl)Methoxy)Quinoline-3-Cyano] | – | > 10 | > 10 | > 10 | < 0.5 |
| C=CC(=O)N1CCN(c2c(C#N)cnc3c(F)c(-c4ccc(F)c5sc(N)nc45)c(Cl)cc23)CC1 [Example 8] | > 30 | > 10 | > 10 | > 10 | < 0.5 |
| C=CC(=O)N1CCN(c2nc(OC[C@@H]3CCCN3C)nc3c(F)c(-c4ccc(F)c5sc(N)nc45)c(Cl)cc23)C[C@H]1C [Example 11, 1-((2R)-4-(7-(2-Amino-7-Fluorobenzo [d] Thiazol-4-yl) -6-Chloro-8-Fluoro-2-(((S)-1-Methylpyrrolidin-2-yl) Methoxy) Quinazolin-4-yl)-2-Methylpiperazin-1-yl) Prop-2-En-1-One] | > 30 | > 10 | > 10 | > 10 | < 0.5 |
| C=CC(=O)N1CCN(c2c(C#N)c(N3CC(N(C)C)C3)nc3c(F)c(-c4ccc(F)c5sc(N)nc45)c(Cl)cc23)CC1 [Example 21, 4-(4-acryloyl Piperazin-1-yl)-7-(2-Amino-7-Fluorobenzo [d] Thiazol-4-yl) -6-Chloro-2-(3-(Dimethylamino) Azetidine-1-yl)-8-Fluoroquinolin-3 -Cyano] | > 30 | > 10 | > 10 | > 10 | < 0.5 |
